Activity calls are given as the source filed them. The calls are words filed in the database; no cut-off is given here.
Legend:
[1] = molecular target: T1, Protoporphyrinogen oxidase (Medicago truncatula) (UniProt G7L3C0); assay: Inhibition of Viola arvensis protoporphyrinogen oxidase by post-emergence herbicidal activity assay
T1 sequence (whole entry): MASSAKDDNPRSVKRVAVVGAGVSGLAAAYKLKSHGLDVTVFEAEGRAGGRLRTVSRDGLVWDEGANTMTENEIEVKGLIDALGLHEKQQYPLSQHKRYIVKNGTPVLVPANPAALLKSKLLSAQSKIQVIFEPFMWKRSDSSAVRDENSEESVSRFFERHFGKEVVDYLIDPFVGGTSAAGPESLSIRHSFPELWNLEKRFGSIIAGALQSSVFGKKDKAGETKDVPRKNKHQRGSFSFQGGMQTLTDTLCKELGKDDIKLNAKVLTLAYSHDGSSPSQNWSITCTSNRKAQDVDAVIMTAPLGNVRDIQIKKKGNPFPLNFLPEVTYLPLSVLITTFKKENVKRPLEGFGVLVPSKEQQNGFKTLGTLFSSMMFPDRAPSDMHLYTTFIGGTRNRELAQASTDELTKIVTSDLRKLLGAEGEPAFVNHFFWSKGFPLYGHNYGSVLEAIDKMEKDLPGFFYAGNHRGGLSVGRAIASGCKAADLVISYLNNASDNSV

[2] = test system: Veronica hederifolia; assay: Herbicidal activity against Veronica hederaefolia assessed as killing at 300 g/ha post emergence application measured after 21 days after treatment; type: functional
[3] = test system: Viola arvensis; assay: Ratio of compound ED90 to ioxynil ED90 for herbicidal activity against Viola arvensis
[4] = test system: Avena fatua; assay: Herbicidal activity against Avena fatua assessed as killing at 0.3 g/ha post emergence application measured after 21 days after treatment; type: functional, organism-based
[5] = test system: Stellaria media; assay: Herbicidal activity against Stellaria media assessed as killing at 10 g/ha post emergence application measured after 21 days after treatment; type: functional
[6] = molecular target: T2, Protoporphyrinogen oxidase 2 (Spinacia oleracea) (UniProt Q94IG7); assay: Inhibition of Stellaria media protoporphyrinogen oxidase by post-emergence herbicidal activity assay
T2 sequence (whole entry): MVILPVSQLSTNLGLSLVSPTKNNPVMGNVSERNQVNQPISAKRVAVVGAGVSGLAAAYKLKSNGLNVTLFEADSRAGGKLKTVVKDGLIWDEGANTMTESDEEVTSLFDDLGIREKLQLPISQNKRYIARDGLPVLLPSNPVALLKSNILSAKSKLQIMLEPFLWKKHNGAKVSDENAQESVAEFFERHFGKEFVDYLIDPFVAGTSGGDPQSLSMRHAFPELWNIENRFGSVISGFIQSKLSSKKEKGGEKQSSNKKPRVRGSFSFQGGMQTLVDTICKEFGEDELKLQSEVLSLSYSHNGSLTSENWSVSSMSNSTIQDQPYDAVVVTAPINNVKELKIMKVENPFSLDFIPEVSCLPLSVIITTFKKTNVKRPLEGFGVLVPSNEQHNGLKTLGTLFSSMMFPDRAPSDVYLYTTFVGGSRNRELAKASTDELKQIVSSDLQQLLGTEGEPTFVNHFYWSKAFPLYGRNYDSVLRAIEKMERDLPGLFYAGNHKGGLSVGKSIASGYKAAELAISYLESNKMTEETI

[7] = test system: Alopecurus myosuroides; assay: Herbicidal activity against Alopecurus myosuroides assessed as killing at 0.3 g/ha post emergence application measured after 21 days after treatment; type: functional, organism-based
[8] = test system: Alopecurus myosuroides; assay: Herbicidal activity against Alopecurus myosuroides assessed as killing at 1 g/ha post emergence application measured after 21 days after treatment; type: functional, organism-based
[9] = test system: Stellaria media; assay: Herbicidal activity against Stellaria media assessed as killing at 300 g/ha post emergence application measured after 21 days after treatment; type: functional
[10] = test system: Veronica hederifolia; assay: Herbicidal activity against Veronica hederaefolia assessed as killing at 1 g/ha post emergence application measured after 21 days after treatment; type: functional
[11] = test system: Triticum aestivum; assay: Phytotoxicity in Triticum aestivum (wheat) assessed as injury at 1 g/ha post emergence application measured after 21 days after treatment; type: organism-based; conditions: in vivo, other, 504 h
[12] = test system: Triticum aestivum; assay: Phytotoxicity in Triticum aestivum (wheat) assessed as injury at 30 g/ha pre emergence application measured after 21 days after treatment; type: organism-based; conditions: in vivo, other, 504 h
[13] = test system: Stellaria media; assay: Herbicidal activity against Stellaria media assessed as killing at 3 g/ha post emergence application measured after 21 days after treatment; type: functional
[14] = test system: Triticum aestivum; assay: Phytotoxicity in Triticum aestivum (wheat) assessed as injury at 10 g/ha post emergence application measured after 21 days after treatment; type: organism-based; conditions: in vivo, other, 504 h
[15] = molecular target: T2, Protoporphyrinogen oxidase 2 (Spinacia oleracea); assay: Inhibition of Stellaria media protoporphyinogen oxidase assessed as herbicidal activity at 0.3 g/ha measured after 21 days after treatment under greenhouse by time-course analysis; set-up: scale not given: the % may be the effect or the level left
[16] = test system: Viola arvensis; assay: Herbicidal activity against Viola arvensis assessed as killing at 5 g/ha measured after 21 days after treatment under greenhouse by time-course analysis; type: functional
[17] = test system: Stellaria media; assay: Ratio of compound ED90 to ioxynil ED90 for herbicidal activity against Stellaria media
[18] = test system: Avena fatua; assay: Herbicidal activity against Avena fatua assessed as killing at 1 g/ha post emergence application measured after 21 days after treatment; type: functional
[19] = test system: Alopecurus myosuroides; assay: Herbicidal activity against Alopecurus myosuroides assessed as killing at 300 g/ha post emergence application measured after 21 days after treatment; type: functional
[20] = test system: Triticum aestivum; assay: Phytotoxicity in Triticum aestivum (wheat) assessed as injury at 10 g/ha pre emergence application measured after 21 days after treatment; type: organism-based; conditions: in vivo, other, 504 h
[21] = test system: Viola arvensis; assay: Herbicidal activity against Viola arvensis assessed as killing at 1 g/ha post emergence application measured after 21 days after treatment; type: functional
[22] = molecular target: T3, Protoporphyrinogen IX oxidase (Cichorium intybus) (UniProt Q9SPL6); assay: Inhibition of Tripleurospermum maritimum subsp. inodorum protoporphyrinogen oxidase by post-emergence herbicidal activity assay
T3 sequence (whole entry): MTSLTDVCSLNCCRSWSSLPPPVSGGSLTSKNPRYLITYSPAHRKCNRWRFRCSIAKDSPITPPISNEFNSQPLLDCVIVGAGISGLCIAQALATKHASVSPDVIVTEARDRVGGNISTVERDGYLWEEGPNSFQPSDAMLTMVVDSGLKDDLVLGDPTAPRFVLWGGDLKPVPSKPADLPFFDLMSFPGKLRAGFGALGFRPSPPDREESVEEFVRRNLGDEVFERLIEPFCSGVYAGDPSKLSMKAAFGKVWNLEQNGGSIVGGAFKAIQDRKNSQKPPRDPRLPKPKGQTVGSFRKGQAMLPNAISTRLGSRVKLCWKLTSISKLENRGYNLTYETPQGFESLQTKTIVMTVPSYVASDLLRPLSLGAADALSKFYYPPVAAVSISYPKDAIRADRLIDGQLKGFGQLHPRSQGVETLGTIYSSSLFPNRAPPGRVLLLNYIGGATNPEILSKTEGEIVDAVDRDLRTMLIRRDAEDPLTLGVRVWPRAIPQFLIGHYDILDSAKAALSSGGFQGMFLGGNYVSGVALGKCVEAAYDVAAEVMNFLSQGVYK

[23] = test system: Viola arvensis; assay: Ratio of compound ED90 to necoprop-p ED90 for herbicidal activity against Viola arvensis
[24] = test system: Galium aparine; assay: Herbicidal activity against Galium aparine assessed as killing at 10 g/ha pre emergence application measured after 21 days after treatment; type: functional
[25] = test system: Stellaria media; assay: Herbicidal activity against Stellaria media assessed as killing at 0.3 g/ha post emergence application measured after 21 days after treatment; type: functional

CCOC(=O)COc1cc(-c2nn(C)c(OC(F)F)c2Cl)c(F)cc1Cl [PYRAFLUFEN-ETHYL]
ED90 [1]: 5 gAi/ha | Activity [2]: 80% | Ratio [3]: 10 | Activity [4]: inactive | Activity [5]: 100% | ED90 [6]: 0.3 gAi/ha | Activity [7]: inactive | Activity [8]: inactive | Activity [9]: 100% | Activity [10]: 90% | Activity [11]: Non-toxic | Activity [12]: Non-toxic | Activity [13]: 100% | Activity [14]: 11% | Activity [15]: > 90% | Activity [16]: 90% | Ratio [17]: 166 | Activity [18]: 1% | Activity [19]: 1% | Activity [20]: Non-toxic | Activity [21]: 80% | ED90 [22]: 0.3 gAi/ha | Ratio [23]: 200 | Activity [24]: 11% | Activity [25]: 90%
